Here are results for three compounds from patent publication US20070265335A1, “POLYMORPHS OF 5-CYCLOPROPYL-2-(4-FLUOROPHENYL)-6-[(2-HYDROXYETHYL)(METHYLSUFONYL)AMINO]-N-METHYL-1-BENZOFURAN-3-CARBOXAMIDE AND METHODS OF MAKING THE SAME” (WYETH, priority 2005, published 2007).

One data set in a line: settling from suspension. It is filed as physicochemical. The text has this:
(§1) The first embodiment of the present invention is directed to a substantially pure polymorphic form A of 5-cyclopropyl-2-(4-fluorophenyl)-6-[(2-hydroxyethyl)(methylsulfonyl)amino]-N-methyl-1-benzofuran-3-carboxamide. The terms “polymorphic form”, “crystal modification”, “polymorph”, and “crystalline form” are used interchangeably herein. As used herein, the terms “isolated” and/or “substantially pure” mean more than 50% of the crystalline 5-cyclopropyl-2-(4-fluorophenyl)-6-[(2-hydroxyethyl)(methylsulfonyl)amino]-N-methyl-1-benzofuran-3-carboxamide or salt thereof is present in the form described herein and preferably at least 70%, more preferably at least 80%, and most preferably at least 90% of the crystalline form described herein is present. […] The peaks shown therein include: 8.4°, 9.0°, 9.8°, 10.1°, 12.6°, 12.9°, 13.2°, 13.4°, 15.9°, 16.4°, 16.8°, 17.4°, 17.9°, 18.4°, 18.5°, 19.0°, 19.2°, 19.7°, 19.8°, 20.0°, 20.2°, 20.5°, 21.0°, 21.7°, 22.2°, 22.6°, 23.6°, 24.0°, 24.5°, 24.7°, 24.9°, 25.3°, 25.9°, 26.0°, 26.5°, 26.9°, 27.3°, 27.6°, 28.1°, 28.7°, […], 30.0°, 30.7°, 31.0°, 31.9°, 32.1°, 32.5°, 33.6°, 34.4°, 34.8°, 35.1°, 35.6°, 36.7°, 36.9°, 37.5°, 38.4°, 38.8°, 39.2° and 39.6° (2θ degrees); one of ordinary skill in the art will readily understand that an about 0.1° to about 0.2° variation for peak positions is typical. […]

In another data set the test system is hepatitis C virus. The following applies: as disclosed in U.S. Patent Application Publication No. 2004-0162318; cited from earlier work.
A short description of data set [1]: hygroscopicity on exposure to air. It is filed as physicochemical. The following applies: exposed to air for a period of about 1 week.
Text: as §1

The nature of data set [2]: thermodynamic stability of the crystalline form. It is filed as physicochemical. Particulars: as indicated by its high melting point of about 175° C.
Text: as §1

Regarding `CNC(=O)c1c(-c2ccc(F)cc2)oc2cc(N(CCO)S(C)(=O)=O)c(C3CC3)cc12` [form B, 5-cyclopropyl-2-(4-fluorophenyl)-6-[(2-hydroxyethyl)(methylsulfonyl)amino]-N-methyl-1-benzofuran-3-carboxamide], the settling from suspension entry in the data set “settling from suspension” is on record as “tends not to settle quickly from suspension”.
For the compound `CNC(=O)c1c(-c2ccc(F)cc2)oc2cc(N(CCO)S(C)(=O)=O)c(C3CC3)cc12` [5-cyclopropyl-2-(4-fluorophenyl)-6-[(2-hydroxyethyl)(methylsulfonyl)amino]-N-methyl-1-benzofuran-3-carboxamide], the “inhibition of the hepatitis C virus” value in the data set on hepatitis C virus is reported as “potent inhibitor”.
Turning to `CNC(=O)c1c(-c2ccc(F)cc2)oc2cc(N(CCO)S(C)(=O)=O)c(C3CC3)cc12` [form A, 5-cyclopropyl-2-(4-fluorophenyl)-6-[(2-hydroxyethyl)(methylsulfonyl)amino]-N-methyl-1-benzofuran-3-carboxamide], the hygroscopicity entry in data set [1] is “non-hygroscopic”. For the same compound, in data set [2], the “thermodynamic stability of polymorph” value is “thermodynamically favored stable form”. Further, the settling from suspension entry in the data set “settling from suspension” is recorded as “tends to settle quickly from suspension”.
